These are literature values, as cited in US11975103B2, “Compositions of midodrine and methods of using the same” (XENAMED CORP., priority 2016, dated 2024).

The subject of series [1] is patients with neurogenic orthostatic hypotension.
For series [2] the following is noted: after oral administration of an immediate release tablet.

For the molecule `COc1ccc(OC)c(C(O)CNC(=O)CN)c1.Cl` (racemic) [Midodrine hydrochloride, (±)-2-amino-N-[2-(2,5-dimethoxyphenyl)-2-hydroxyethyl]acetamide monohydrochloride], the solubility in water result is “soluble in water”. Moreover, the “standing systolic blood pressure” value in series [1] was “significantly increases”.
Turning to `COc1ccc(OC)c(C(O)CNC(=O)CN)c1` (stereo not shown) [midodrine], in series [2], the half-life entry was “approximately 25 minutes” and the “time to peak plasma levels” value is listed as “about 30 minutes”.
